Data: ChEMBL document CHEMBL1143058, “Evaluation of a diverse set of potential P1 carboxylic acid bioisosteres in hepatitis C virus NS3 protease inhibitors” (Bioorg Med Chem, 2007)

How the values were obtained:
[1] = Inhibition of HCV NS3 protease in presence of pH 7.5 HEPES buffer; set-up: species or system Hepacivirus hominis
Hepatitis C virus = experiment: Inhibition of HCV by subgenomic HCV replication assay; format: functional, organism-based, Hepacivirus hominis
[2] = Inhibition of HCV NS3 protease in presence of pH 6.0 buffer; set-up: species or system Hepacivirus hominis
[3] = Inhibition of HCV NS3 protease in presence of pH 7.0 buffer; set-up: species or system Hepacivirus hominis
[4] = Inhibition of HCV NS3 protease in presence of pH 8.0 buffer; set-up: species or system Hepacivirus hominis

Compound `C=C[C@@H]1C[C@]1(NC(=O)[C@@H]1C[C@@H](Oc2cc(-c3ccccc3)nc3cc(OC)ccc23)CN1C(=O)[C@@H](NC(=O)OC(C)(C)C)C(C)(C)C)C(=O)O` has a Ki [1] of 20 nM, an EC50 (Hepatitis C virus) of 140 nM and a Ki [2] of 0.12 nM. For the same compound, the Ki [3] was 0.68 nM and the Ki [4] was 8.7 nM.
In the case of `C=C[C@@H]1C[C@]1(NC(=O)[C@@H]1C[C@@H](Oc2cc(-c3ccccc3)nc3cc(OC)ccc23)CN1C(=O)[C@@H](NC(=O)OC(C)(C)C)C(C)(C)C)C(=O)NC#N`, the Ki [1] is reported as 6 nM, the EC50 (Hepatitis C virus) is reported as 1200 nM and the Ki [2] is reported as 0.14 nM. It also gave a Ki [3] of 0.51 nM and a Ki [4] of 10.8 nM.
For `C=C[C@@H]1C[C@]1(NC(=O)[C@@H]1C[C@@H](Oc2cc(-c3ccccc3)nc3cc(OC)ccc23)CN1C(=O)[C@@H](NC(=O)OC(C)(C)C)C(C)(C)C)C(=O)NS(=O)(=O)c1ccc(C)cc1`, the Ki [1] was 0.22 nM, the EC50 (Hepatitis C virus) was 6 nM and the Ki [2] was 0.006 nM. For the same compound, the Ki [3] was 0.056 nM and the Ki [4] was 0.39 nM.
For `C=C[C@@H]1C[C@]1(NC(=O)[C@@H]1C[C@@H](Oc2cc(-c3ccccc3)nc3cc(OC)ccc23)CN1C(=O)[C@@H](NC(=O)OC(C)(C)C)C(C)(C)C)C(=O)NNc1ccccc1`, the Ki [1] was 560 nM, the EC50 (Hepatitis C virus) was > 10000 nM and the Ki [2] was 28 nM. For the same compound, the Ki [3] was 113 nM and the Ki [4] was 287 nM.
For `C=C[C@@H]1C[C@]1(NC(=O)[C@@H]1C[C@@H](Oc2cc(-c3ccccc3)nc3cc(OC)ccc23)CN1C(=O)[C@@H](NC(=O)OC(C)(C)C)C(C)(C)C)C(=O)NNC(=O)Cc1ccccc1`, the Ki [1] was 880 nM and the EC50 (Hepatitis C virus) was > 10000 nM.
With `C=C[C@@H]1C[C@]1(NC(=O)[C@@H]1C[C@@H](Oc2cc(-c3ccccc3)nc3cc(OC)ccc23)CN1C(=O)[C@@H](NC(=O)OC(C)(C)C)C(C)(C)C)C(=O)Nc1nccs1` the Ki [1] was 821 nM, the EC50 (Hepatitis C virus) was > 10000 nM and the Ki [2] was 7.7 nM. The Ki [3] was 294 nM and the Ki [4] was 343 nM.
With `C=C[C@@H]1C[C@]1(NC(=O)[C@@H]1C[C@@H](Oc2cc(-c3ccccc3)nc3cc(OC)ccc23)CN1C(=O)[C@@H](NC(=O)OC(C)(C)C)C(C)(C)C)c1nnc(-c2ccccc2)o1` the Ki [1] was 2200 nM and the EC50 (Hepatitis C virus) was > 10000 nM.
With `C=C[C@@H]1C[C@]1(NC(=O)[C@@H]1C[C@@H](Oc2cc(-c3ccccc3)nc3cc(OC)ccc23)CN1C(=O)[C@@H](NC(=O)OC(C)(C)C)C(C)(C)C)c1nnn[nH]1` the Ki [1] was 214 nM and the EC50 (Hepatitis C virus) was 2800 nM.
For `C=C[C@@H]1C[C@]1(NC(=O)[C@@H]1C[C@@H](Oc2cc(-c3ccccc3)nc3cc(OC)ccc23)CN1C(=O)[C@@H](NC(=O)OC(C)(C)C)C(C)(C)C)C(=O)NNC(=O)c1ccccc1`, the Ki [1] was 1600 nM and the EC50 (Hepatitis C virus) was > 10000 nM.
Compound `C=C[C@@H]1C[C@]1(NC(=O)[C@@H]1C[C@@H](Oc2cc(-c3ccccc3)nc3cc(OC)ccc23)CN1C(=O)[C@@H](NC(=O)OC(C)(C)C)C(C)(C)C)C(=O)N[S+]([O-])c1ccc(C)cc1` (stereo not given in full) has a Ki [1] of 9 nM and an EC50 (Hepatitis C virus) of 1800 nM.
Compound `C=C[C@@H]1C[C@]1(NC(=O)[C@@H]1C[C@@H](Oc2cc(-c3ccccc3)nc3cc(OC)ccc23)CN1C(=O)[C@@H](NC(=O)OC(C)(C)C)C(C)(C)C)C(=O)NO` has a Ki [1] of 425 nM and an EC50 (Hepatitis C virus) of 3800 nM.
`C=C[C@@H]1C[C@]1(NC(=O)[C@@H]1C[C@@H](Oc2cc(-c3ccccc3)nc3cc(OC)ccc23)CN1C(=O)[C@@H](NC(=O)OC(C)(C)C)C(C)(C)C)C(=O)NNS(=O)(=O)c1ccccc1` showed a Ki [1] of 140 nM and an EC50 (Hepatitis C virus) of 1600 nM.
With `C=C[C@@H]1C[C@]1(NC(=O)[C@@H]1C[C@@H](Oc2cc(-c3ccccc3)nc3cc(OC)ccc23)CN1C(=O)[C@@H](NC(=O)OC(C)(C)C)C(C)(C)C)C(=O)NS(=O)(=O)C1CC1` the Ki [1] was 0.058 nM and the EC50 (Hepatitis C virus) was 0.9 nM.
Work on `C=C[C@@H]1C[C@]1(NC(=O)[C@@H]1C[C@@H](Oc2cc(-c3ccccc3)nc3cc(OC)ccc23)CN1C(=O)[C@@H](NC(=O)OC(C)(C)C)C(C)(C)C)C(=O)NS(=O)(=O)c1ccccc1` yielded a Ki [1] of 0.34 nM and an EC50 (Hepatitis C virus) of 6 nM.
In the case of `C=C[C@@H]1C[C@]1(NC(=O)[C@@H]1C[C@@H](Oc2cc(-c3ccccc3)nc3cc(OC)ccc23)CN1C(=O)[C@@H](NC(=O)OC(C)(C)C)C(C)(C)C)C(=O)NCC(F)(F)F`, the Ki [1] is reported as 1690 nM, the EC50 (Hepatitis C virus) is reported as > 2000 nM and the Ki [2] is reported as 71 nM. For the same compound, the Ki [3] was 349 nM and the Ki [4] was 734 nM.
For `C=C[C@@H]1C[C@]1(NC(=O)[C@@H]1C[C@@H](Oc2cc(-c3ccccc3)nc3cc(OC)ccc23)CN1C(=O)[C@@H](NC(=O)OC(C)(C)C)C(C)(C)C)C(=O)NNCc1ccccc1`, the Ki [1] was 1100 nM and the EC50 (Hepatitis C virus) was > 10000 nM.
